Data from patent publication US20110268807A1, “Biodegradable Microspheres and Methods of Use Thereof” (priority 2008, published 2011).

Experiments:
[1] = Atropine release per cycle (atropine content in filtrate), nanoparticles; assay type: physicochemical; settings: FIG. 17B
Source text: FIGS. 17A and 17B depict atropine release. […] The first sharp decrease in atropine release would be related to the excess atropine in solution. The slow release characteristic of the second slope would be the drug release associated with nanoparticle degradation.

[2] = Release of atropine from hydrogel in medium at 37° C., static conditions; assay type: physicochemical
Source text: FIG. 16 depicts release rate of atropine from hydrogel. […] Hydrogel for the second release test (B) was soaked in excess drug solution to reach maximum swelling. Almost no drug retention was observed; therefore, the release is approximately zero.

CN1[C@@H]2CC[C@H]1C[C@@H](OC(=O)C(CO)c1ccccc1)C2 (stereo partly shown) [atropine]
cumulative release percentage per cycle [1]: all the atropine was release by the seventh cycle
atropine release from hydrogel ([2]; first preliminary test (A): hydrogel absorbed all of the drug solution, medium at 37° C., static conditions): 68%
time course of atropine release from hydrogel ([2]; first preliminary test (A), burst effect): most of which occurred during the first two hours
atropine release from hydrogel ([2]; second release test (B): hydrogel soaked in excess drug solution to maximum swelling, almost no drug retention): approximately zero
